{"source": "patent US20260250412A1", "about": "“COMBINATION OF ANTIBODY-DRUG CONJUGATE AND ANTI-PD-1 ANTIBODY, AND USE THEREOF” (GENEQUANTUM HEALTHCARE (SUZHOU) CO., LTD., priority 2023, published 2026)", "key": {"[1]": {"system": "FaDu mouse xenograft tumor", "test": "In vivo efficacy, FaDu mouse xenograft tumor", "set-up": "species or system BALB/c nude mice", "details": "for Tumor volume (mm^3) Day 0: baseline at grouping", "description": "I. The logarithmic growth phase BxPC-3 were collected and the cell density was adjusted to 10×10^6 cells/mL with Matrigel buffer (PBS:Matrigel=1:1). 0.2 mL of the prepared BxPC-3 cell suspension was subcutaneously injected into the right scapula of SPF female BALB/c nude mice aged 6-8 weeks.\nII. The tumor diameter was measured with a vernier caliper and the tumor volume was calculated according to the formula V=0.5a×b^2 (where a is the longest diameter of the tumor and b is the shortest diameter of the tumor). […] Animals in each group were administered by tail vein injection, and the control group was given an equal volume of vehicle. The tumor volume of animals in each group was measured twice a week within 35 days after administration, and the tumor volume of animals on day 35 was compared between groups. T/C and TGI values were calculated using tumor volume. The calculation formula is as follows: T/C %=TRTV/CRTV×100% (TRTV: RTV of the treatment group; CRTV: RTV of the vehicle control group). The relative tumor volume (RTV) was calculated based on the results of tumor measurement, and the calculation formula was RTV=Vt/V0, where V0 was the average tumor volume measured at the time of grouping (i.e., D0), Vt was the average tumor volume at one measurement, and TRTV and CRTV took the same day of data.\nThe BxPC-3 pancreatic cancer cells in Example 3.3.1 were replaced with human pharyngeal squamous cells carcinoma FaDu, and 10 days after cell inoculation, when the average tumor volume was about 119 mm^3, animals were randomly divided into vehicle control group, […], with 6 animals in each group."}, "[2]": {"system": "MC38-hTROP2 colon carcinoma", "test": "In vivo efficacy, MC38-hTROP2 colon carcinoma syngeneic CDX model", "set-up": "species or system C57BL/6J mice", "details": "Table 22, monotherapy 3 mg/kg", "description": "Objective: To evaluate the in vivo anti-tumor efficacy of the combination of ADC drug ADC2 with Anti-mPD-1 in mice bearing colon carcinoma Trop2-high CDX model.\nI. MC38-hTROP2 cells (Biocytogen) in exponential growth stage were collected and counted for tumor inoculation. 0.5×10^6 cells in 0.1 mL of PBS were used to subcutaneously inject into the right flank of SPF female C57BL/6J mice aged 6-8 weeks.\nII. 6 days after inoculation, the tumor diameter was measured with a caliper and the tumor volume was calculated according to the formula V=0.5 a×b^2 (wherein a is the long diameter of the tumor and b is the short diameter of the tumor). When the mean tumor volume was about 100-300 mm^3, the mice were randomized into vehicle group, ADC2 3 mg/kg group, DS1062a 3 mg/kg group, Anti-mPD-1 (Bio X cell, 825822J1) 1 mg/kg group, ADC2+Anti-mPD-1 combination group and DS1062a+Anti-mPD-1 combination group. Each group includes 6 mice. The day of first administration is defined as day 0. Mice in the vehicle group were given the solvent of ADC2 and the solvent of Anti-mPD-1 with the same frequency and administration route. The tumor volume of mice in each group was measured twice a week."}, "[3]": {"system": "NCI-N87 mouse xenograft tumor", "test": "In vivo efficacy, NCI-N87 mouse xenograft tumor", "set-up": "species or system BALB/c nude mice", "details": "3 mg/kg; for Tumor volume (mm^3) Day 0: baseline at grouping"}, "[4]": {"system": "human gastric cancer cells NCI-N87", "test": "Cell proliferation, CellTiter Glo, 96 h, NCI-N87", "type": "cell-based", "details": "NCI-N87, 96 h", "description": "Two thousand human pharyngeal squamous cells carcinoma FaDu with high TROP2 expression were seeded into 96-well plates in 100 μL of culture medium per well, and incubated overnight in a cell incubator at 37° C. and 5% CO2. […] A positive control group was set: 100 μL Puromycin at a concentration of 10 μg/mL was added to each well. A negative control group was set: 100 μL of complete medium of FaDu cells was added to each well. After the administration was completed, the cells were moved to the incubator and incubated for 96 h. The 96-well plate was removed from the 37° C. cell incubator and equilibrated to room temperature for 30 minutes. After the medium was discarded, 100 μL of DMEM and 50 μL of CellTiter Glo reagent were added to each well, and the cells were shaken in the dark at 200 rpm for 15 minutes, and the luminescent signal reflecting cell viability was detected by a microplate reader. The inhibitory effects of the tested drugs on the proliferation of human pharyngeal squamous cell carcinoma FaDu are as shown in FIG. 2 and Table 7.\nThe human pharyngeal squamous cells carcinoma FaDu in Example 2.1.1 were replaced with human gastric cancer cells NCI-N87 (100 μL per well containing 5000 cells), and the inhibitory effect of ADC-7 was evaluated using the same process."}, "[5]": {"system": "MDA-MB-468 mouse xenograft tumor", "test": "In vivo efficacy, MDA-MB-468 mouse xenograft tumor", "set-up": "species or system BALB/c Nude mice", "details": "4.5 mg/kg, intravenously", "description": "The MDA-MB-468 tumor cells (ATCC, HTB-132) were maintained in vitro as a monolayer culture in L-15 medium supplemented with 10% fetal bovine serum and 1% Antibiotic-Antimycotic at 37° C. in an atmosphere of 0% CO2 in air. The cells growing in an exponential growth phase will be harvested and counted for tumor inoculation. For in vivo anti-tumor efficacy study, 10×10^6 MDA-MB-468 human breast cancer cells (Trop2 positive) in 0.2 mL of PBS with Matrigel (1:1) were inoculated subcutaneously in the right flank in BALB/c Nude mice. […] The tumor volume was measured twice weekly with a caliper. T/C and TGI values were calculated using tumor volume."}, "[6]": {"system": "human pancreatic cancer cells BxPC-3", "test": "Cell proliferation, CellTiter Glo, 96 h, BxPC-3", "type": "cell-based", "details": "BxPC-3, 96 h", "description": "A positive control group was set: 100 μL Puromycin at a concentration of 10 μg/mL was added to each well. […] After the administration was completed, the cells were moved to the incubator and incubated for 96 h. The 96-well plate was removed from the 37° C. cell incubator and equilibrated to room temperature for 30 minutes. After the medium was discarded, 100 μL of DMEM and 50 μL of CellTiter Glo reagent were added to each well, and the cells were shaken in the dark at 200 rpm for 15 minutes, and the luminescent signal reflecting cell viability was detected by a microplate reader."}}, "note": "Several values for one entry are separate records, joined by “and”; a condition that tells them apart may be missing. Equal values may be shown once.", "data": [{"substance": "DS1062a", "values": [{"measurement": "Tumor volume (mm^3) Day 28", "setting": "[1]; Table 18, 3 mg/kg", "value": "28 mm^3 and 28 ± 14 mm^3"}, {"measurement": "T/C (%)", "setting": "[1]; Table 18, 3 mg/kg, Day 28", "value": 1.68, "unit": "%"}, {"measurement": "TGI (%)", "setting": "[1]; Table 18, 3 mg/kg, Day 28", "value": 106.11, "unit": "%"}, {"measurement": "Tumor volume (mm^3) Day 0", "setting": "[1]; Table 18, 3 mg/kg", "value": "123 ± 13", "unit": "mm^3"}, {"measurement": "Tumor volume (mm^3) Day 31", "setting": "[1]; Table 21, 2 mg/kg", "value": "296 mm^3 and 296 ± 125 mm^3"}, {"measurement": "T/C (%)", "setting": "[1]; Table 21, 2 mg/kg, Day 31", "value": 15.47, "unit": "%"}, {"measurement": "TGI (%)", "setting": "[1]; Table 21, 2 mg/kg, Day 31", "value": 90.15, "unit": "%"}, {"measurement": "Tumor volume (mm^3) Day 0", "setting": "[1]; Table 21, 2 mg/kg", "value": "119 ± 11", "unit": "mm^3"}, {"measurement": "tumor growth inhibition (in words)", "setting": "[1]; effect example 3.2.3, 3 mg/kg, after 28 days", "value": "could significantly inhibit FaDu tumor growth"}, {"measurement": "tumor growth inhibition (in words)", "setting": "[1]; effect example 3.3.3, 2 mg/kg, after 31 days", "value": "could significantly inhibit tumor growth"}, {"measurement": "TGI (%)", "setting": "[2]; day 28", "value": 12.8, "unit": "%"}, {"measurement": "Tumor volume (mm^3)", "setting": "[2]; end day (day 28), mean", "value": 1415, "unit": "mm^3"}, {"measurement": "Tumor volume (mm^3) Day 32", "setting": "[3]; Table 14, single dose", "value": "658 mm^3 and 658 ± 43 mm^3"}, {"measurement": "T/C (%)", "setting": "[3]; Table 14, single dose, Day 32", "value": 49.98, "unit": "%"}, {"measurement": "TGI (%)", "setting": "[3]; Table 14, single dose, Day 32", "value": 60.23, "unit": "%"}, {"measurement": "Tumor volume (mm^3) Day 0", "setting": "[3]; Table 14, single dose", "value": "228 ± 20", "unit": "mm^3"}, {"measurement": "Tumor volume (mm^3) Day 28", "setting": "[3]; Table 17", "value": "255 mm^3 and 255 ± 35 mm^3"}, {"measurement": "T/C (%)", "setting": "[3]; Table 17, Day 28", "value": 40.30, "unit": "%"}, {"measurement": "TGI (%)", "setting": "[3]; Table 17, Day 28", "value": 84.96, "unit": "%"}, {"measurement": "Tumor volume (mm^3) Day 0", "setting": "[3]; Table 17", "value": "188 ± 11", "unit": "mm^3"}, {"measurement": "Tumor volume (mm^3) Day 42", "setting": "[3]; Table 20", "value": "437 mm^3 and 437 ± 89 mm^3"}, {"measurement": "T/C (%)", "setting": "[3]; Table 20, Day 42", "value": 35.67, "unit": "%"}, {"measurement": "TGI (%)", "setting": "[3]; Table 20, Day 42", "value": 76.58, "unit": "%"}, {"measurement": "Tumor volume (mm^3) Day 0", "setting": "[3]; Table 20", "value": "196 ± 14", "unit": "mm^3"}, {"measurement": "tumor growth inhibition (in words)", "setting": "[3]; effect example 3.1.2, after 32 days", "value": "able to significantly inhibit tumor growth"}, {"measurement": "tumor growth inhibition (in words)", "setting": "[3]; effect example 3.2.2, after 28 days", "value": "can significantly inhibit NCI-N87 tumor growth"}, {"measurement": "tumor growth inhibition (in words)", "setting": "[3]; effect example 3.3.2, after 42 days", "value": "could significantly inhibit tumor growth"}, {"measurement": "inhibition of proliferation (in words)", "setting": "[4]", "value": "could inhibit the proliferation of NCI-N87 cells"}, {"measurement": "IC50", "setting": "[4]; Table 10", "value": 1.26, "unit": "nM"}, {"measurement": "Tumor volume (mm^3) on day 35", "setting": "[5]", "value": "9 ± 9", "unit": "mm^3"}, {"measurement": "T/C (%)", "setting": "[5]; day 35", "value": 1.35, "unit": "%"}, {"measurement": "TGI (%)", "setting": "[5]; day 35", "value": 136.06, "unit": "%"}, {"measurement": "inhibition of proliferation (in words)", "setting": "[6]", "value": "could inhibit the proliferation of BxPC-3 cells"}, {"measurement": "IC50", "setting": "[6]; Table 8", "value": 0.584, "unit": "nM"}]}]}
